Experimental data from patent US20150045313A1, “Ectoparasiticidal Methods and Formulations” (Eli Lilly and Company, priority 2009, published 2015).
Like-named read-outs stand apart in the source and are kept apart here.

Tests used:
[1] = test system: Cat Flea; assay: Flea Contact Assay (FCA); details: Cat Flea
Method: Flea Contact Assay (FCA)/Cat Flea: Test material is formulated in acetone at the desired exposure concentration and doubling dilutions performed to obtain a total of 10 testing levels. Approximately 0.05 ml of formulated material is dispensed into the bottom of a test tube containing a small amount of dog hair. Acetone is allowed to evaporate under a fume hood overnight. Approximately 10 mixed-sex adult cat flea are anesthetized using carbon dioxide and dispensed into each tube. Tubes are sealed using a ventilated plastic cap and incubated at 27° C. and 75-80% relative humidity. […] Nonlinear regression is used to model dose-mortality relationship and obtain relative potency (LD50) data compared to contemporaneous controls (acetone-only or fipronil).

[2] = test system: House Fly; assay: Adult House Fly Assay (AhsF); design: species or system Musca domestica; details: 24 h, read-out: Potency (24 h EC50 μM)
Method: Adult Stable or House Fly Assay (ASF, AhsF). This assay is conducted essentially as described in White, W. H., S. M. Bauer, X. Zhao et al., Comparison of in vitro and in vivo ectoparasiticide activity of an experimental benzimidazole-carbamate with permethrin and amitraz, J. Med. Entomol. 42, 207-211 (2005); and White, W. H., C. M. McCoy, J. A. Meyer et al., Knockdown and mortality comparisons among spinosad-, imidacloprid-, and methomyl-containing baits against susceptible Musca domestica (Diptera: Muscidae) under laboratory conditions, J. Econ. Entomol. 100, 155-163 (2007).
Test material is formulated in DMSO at 10 mM. Doubling dilutions in like solvent are made to yield 10 testing levels. Materials are diluted in either bovine serum (stable flies) or 5% glucose solution (house flies) to obtain desired exposure concentrations from 200-0.39 μM. Approximately 3 ml of diluted test material is placed into a test tube (n=3 per test level) and a dental wick is used to absorb fluid. One dental wick is placed into a small weigh boat inside of a 100 mm Petri dish. Approximately 10 mixed-sex adult flies are anesthetized using carbon dioxide and counted into each dish. Dishes are incubated at 27° C. and 50-70% relative humidity. Flies recover from anesthesia and feed on compound-soaked dental wicks. After 24 h, live/dead flies are enumerated. Nonlinear regression is used to model dose-mortality relationship and obtain relative potency (LD50) data compared to contemporaneous controls (solvent-only or permethrin).

[3] = test system: Lone Star Tick; assay: Larval Packet Test (LPT); details: Lone Star Tick larvae, 24 h
Method: Larval Packet Test (LPT)/Ticks: Test material is formulated in a 2:1 ratio of trichloroethylene: olive oil. Tissue biopsy bags are saturated with 1 ml of formulated material (n=3 per test level), and bags are allowed to dry under a fume hood for at least 2 hours. Approximately 50-100 larval-stage ticks are placed into each bag, and the bag is sealed using a plastic dialysis clip and incubated for 24 h at 27° C. and 95% relative humidity. Bags are then opened, and live/dead ticks are enumerated. Nonlinear regression is used to model dose-mortality relationship and obtain relative potency (LD50) data compared to contemporaneous controls (solvent-only or fipronil).

[4] = test system: Boophilus annulatus; assay: Whole-body spray treatment of Boophilus annulatus infestations on cattle; format: in vivo; design: residual efficacy, mean percentage control of the IF, Week 3 / residual efficacy, mean percentage control of the IF, Week 4: concentration or dose not given beside the values; residual efficacy, mean percentage control of the IF, Week 2: tested at 0.025% (250 ppm)
Method: C) Efficacy Testing and comparison of topically applied spinetoram with spinosad for the treatment of Boophilus annulatus infestations on cattle. Technical spinetoram and technical spinosad both formulated as 25 g/L suspension concentrate formulations similar to commercial Elector. Stability assays (HPLC and LPT bioassays) were conducted to confirm potency over extended periods of time (5 weeks) at cool and shelf-temperatures. Cattle were pre-infested 21 d prior to treatment with larval-stage B. annulatus ticks resulting the presence of very high numbers of all three life-stages of this tick at the time of treatment. Test materials were diluted to 0.025% (250 ppm) and applied to cattle as whole-body topical sprays in a volume of 10 L per animal. There were a total of six animals per treatment group (n=6). Animals were housed in covered stalls under ambient conditions of temperature and humidity. Engorged, detached adult female ticks were retrieved from animals in each stall on a daily basis. Egg masses were weighed and eggs were set for hatching to assess viability. Efficacy was measured in terms of total numbers of female ticks per animal and index of fecundity (IF).
Means were tested by General Linear Model (GLM), 1-way ANOVA. Differences (P<0.05) among means were separated using Tukey's all pairwise comparison. Means within the same column followed by different letters were significant at the P<0.05 level.
Means were tested by General Linear Model (GLM), 2-way ANOVA with parasitic life stage and treatment group as main effects. NS denotes not significant.

[5] = test system: Horn Fly (Haematobia irritans); assay: Cattle Ectoparasiticide Test, pour-on or spray against horn flies; format: in vivo; details: cattle, Initial
From the text: Cattle Ectoparasiticide Test (CET)/Horn Fly (Haematobia irritans) and/or Adult Tick (Amblyomma americanum): Cattle are housed in environmentally controlled rooms, 1 or 2 animals per room that have screened doors and ventilation system to prevent fly escape. Following treatment application, a defined number of horn flies are released into each room (typically at or above economic threshold of 200 flies per animal). After defined periods of time, the numbers of live horn flies remaining on animals are enumerated. If a combination horn fly and tick experiment is conducted, adult lone star ticks are placed into surgical stockinette enclosures that are glued onto the backs of cattle. Cattle are restrained in a modified head gate within environmentally controlled rooms. Horn flies may be enumerated, followed by determination of the numbers of dead ticks inside of containment units. Typically there are 2 containment units per animal and at least 2 animals per treatment group.
B) Therapeutic and residual efficacy testing of spinetoram and Elector against horn flies when applied topically to cattle as a pour-on or topical spray. Spinetoram (120 g/L), Elector (25 g/L spinosad) as described previously were used. Test material was applied to animals as either a whole-body topical spray or neat pour-on. Spinetoram was diluted in water to 25 g/L prior to application as a pour-on. Both materials were diluted in water to 0.04% (400 ppm) for application as a whole-body spray in a total volume of 1 L per animal. There were a total of six animals per treatment group (n=6) plus six negative control animals. Beef and dairy cattle were used. Following treatments, horn flies were released into rooms harboring cattle. Live flies were enumerated 24 h following challenges.

[6] = cattle, 0.025% AI whole-body spray, mean ± SD

With N#Cc1nn(-c2c(Cl)cc(C(F)(F)F)cc2Cl)c(N)c1[S+]([O-])C(F)(F)F (stereo not drawn) [Fipronil, fipronil] the “Potency (EC50 ng/cm^2) 24 h” value [1] was 43.56 ng/cm^2, the “Potency (EC50 ng/cm^2) 48 h” value [1] was 22.18 ng/cm^2 and the EC50 ([2]; Musca domestica) was 0.97 µM.
For O=[N+]([O-])NC1=NCCN1Cc1ccc(Cl)nc1 [Imidacloprid, imidacloprid], the “Potency (EC50 ng/cm^2) 24 h” value [1] was 11.59 ng/cm^2 and the “Potency (EC50 ng/cm^2) 48 h” value [1] was 7.737 ng/cm^2.
For CC1(C)C(C=C(Cl)Cl)C1C(=O)OCc1cccc(Oc2ccccc2)c1 (stereo not drawn) [Permethrin, permethrin], the “Potency (EC50 ng/cm^2) 24 h” value [1] was 63.30 ng/cm^2 and the “Potency (EC50 ng/cm^2) 48 h” value [1] was 0.1580 ng/cm^2.
For spinosad, the “Potency (EC50 ng/cm^2) 24 h” value [1] was 3.084 ng/cm^2, the “Potency (EC50 ng/cm^2) 48 h” value [1] was 1.500 ng/cm^2 and the “Potency (EC50)” value [3] was 189.6 ppm. For the same molecule, the EC50 ([2]; House Fly) was 12 µM, the “initial/knockdown activity against B. annulatus” value ([4]; cattle, 0.025% AI) was “poor” and the “Number ♀♀ Ticks per Calf” value [4, 6] was 2423 ± 311 a. For the same molecule, the “Total Index of Fecundity (IF)” value [4, 6] was 289 ± 40.1 a, the “Percentage Control of the IF” value ([4]; cattle, 0.025% AI whole-body spray, therapeutic efficacy) was 27.6 ± 10.0 a % and the “Percentage control, Adult” value ([4]; parasitic life stage adult, 0.025% AI) was 18.5 ± 13.0%. For the same molecule, the “Percentage control, Larval” value ([4]; parasitic life stage larva, 0.025% AI) was 33.1 ± 16.6%, the “Percentage control, Nymph” value ([4]; parasitic life stage nymph, 0.025% AI) was 32.9 ± 10.8% and the “residual efficacy, mean percentage control of the IF, Week 1” value ([4]; ticks infested as larvae Week 1 after treatment) was 97.6 ± 2.1%. For the same molecule, the “residual efficacy, mean percentage control of the IF, Week 2” value ([4]; ticks infested as larvae Week 2 after treatment) was 98.5 ± 1.2%, the “residual efficacy, mean percentage control of the IF, Week 3” value ([4]; ticks infested as larvae Week 3 after treatment) was 89.4 ± 6.2% and the “residual efficacy, mean percentage control of the IF, Week 4” value ([4]; ticks infested as larvae Week 4 after treatment) was 89.7 ± 4.8%. For the same molecule, the “GM percent horn fly reduction after 24 hrs, Pour-on” value ([5]; pour-on 2 mg/kg) was 99.9% and the “GM percent horn fly reduction after 24 hrs, Spray” value ([5]; whole-body spray 0.04% AI) was 100%.
